These results are taken from US20120016009A1, “Optimized Methods For Delivery Of DSRNA Targeting The PCSK9 Gene” (priority 2008, published 2012).

The test system of this data set is PCSK9 mRNA. As to the kind of experiment: In vitro screening of modified dsRNAs targeted to PCSK9 (Table 2b; cell type not given). It is filed as cell-based. The settings on record: 30 nM siRNA. As for the experimental part:
For transfection with siRNA, HuH7, HepG2, or HeLa cells were seeded at a density of 2.0×10^4 cells/well in 96-well plates and transfected directly. Transfection of siRNA (30 nM for single dose screen) was carried out with lipofectamine 2000 (Invitrogen GmbH, Karlsruhe, Germany, cat. No. 11668-019) as described by the manufacturer.
24 hours after transfection HuH7 and HepG2 cells were lysed and PCSK9 mRNA levels were quantified with the Quantigene Explore Kit (Genosprectra, Dumbarton Circle Fremont, USA, cat. No. QG-000-02) according to the protocol. PCSK9 mRNA levels were normalized to GAP-DH mRNA. For each siRNA eight individual datapoints were collected. siRNA duplexes unrelated to PCSK9 gene were used as control. The activity of a given PCSK9 specific siRNA duplex was expressed as percent PCSK9 mRNA concentration in treated cells relative to PCSK9 mRNA concentration in cells treated with the control siRNA duplex.
Tables 1b and 2b (and FIG. 6A) summarize the results and provide examples of in vitro screens in different cell lines at different doses. Silencing of PCSK9 transcript was expressed as percentage of remaining transcript at a given dose.

In the oligonucleotide strings, read from the 5' end, every base follows the letter of its sugar. An asterisk marks phosphorothioate; unmarked linkages are phosphodiester. Other units and linkages are bracketed, terminal groups are in braces. A string of capitals states the bases alone. [Ab] = 3'-terminal abasic nucleotide; e = 2'-O-(2-methoxyethyl) (MOE); d = 2'-deoxy (DNA); m = 2'-O-methyl; r = 2'-OH (RNA); {P} = phosphate; f = 2'-fluoro

With “AD-12348: modified dsRNA, SEQ ID NO:1395/1396 (chain 1 rGmCmCmUrGrGrArGmUmUmUrAmUmUmCrGrGrArAdT*dT; chain 2 {P}-mUfUmCfCmGfAmAfUmAfAmAfCmUfCmCfAmGfGmCdT*dT)”, the “Remaining mRNA in % of controls at siRNA conc. of 30 nM” value (from here on “Remaining mRNA in % of controls”) came to 8%. Regarding “AD-12349: modified dsRNA, SEQ ID NO:1397/1398 (chain 1 GCCUGGNAGUUUAUUCGGAATT; chain 2 {P}-mUfUmCfCmGfAmAfUmAfAmAfCmUfCmCfAmGfGmCdT*dT; chain 1: chemistry not given here; further chemistry not fully specified)”, the “Remaining mRNA in % of controls” value amounted to 11%.

Consider “AD-12350: modified dsRNA, SEQ ID NO:1399/1400 (chain 1 fGmCfCmUfGmGfAmGfUmUfUmAfUmUfCmGfGmAfAdTdT[Ab]; chain 2 {P}-mUfUmCfCmGfAmAfUmAfAmAfCmUfCmCfAmGfGmCdTdT[Ab])”, for which the “Remaining mRNA in % of controls” value amounted to 17%. With “AD-12351: modified dsRNA, SEQ ID NO:1401/1402 (chain 1 fGmCfCmUfGmGfAmGfUmUfUmAfUmUfCmGfGmAfA; chain 2 {P}-mUfUmCfCmGfAmAfUmAfAmAfCmUfCmCfAmGfGmC*fC*mU)”, the “Remaining mRNA in % of controls” value came to 11%. Take “AD-12352: modified dsRNA, SEQ ID NO:1403/1404 (chain 1 fGmCfCmUfGmGfAmGfUmUfUmAfUmUfCmGfGmAfA; chain 2 rUrUrCrCrGmAmArUrAmAmArCrUrCrCrAmGmGmC*mC*mU)”: the “Remaining mRNA in % of controls” value stood at 11%.

“AD-12354: modified dsRNA, SEQ ID NO:1405/1406 (chain 1 fGmCfCmUfGmGfAmGfUmUfUmAfUmUfCmGfGmAfA; chain 2 rUrUrCrCrGrArArUrArArArCrUrCrCrArGrGrC*mC*mU)”: the “Remaining mRNA in % of controls” value was 11%. Turning to “AD-12355: modified dsRNA, SEQ ID NO:1407/1408 (chain 1 fGmCfCmUfGmGfAmGfUmUfUmAfUmUfCmGfGmAfA; chain 2 rUrUrCrCrGrArAmUrArArArCrUrCmCrArGrGrCdT*dT)”, the “Remaining mRNA in % of controls” value was 9%. For the substance “AD-12356: modified dsRNA, SEQ ID NO:1409/1410 (chain 1 fGmCfCmUfGmGfAmGfUmUfUmAfUmUfCmGfGmAfA; chain 2 mUrUmCrCrGrArAmUrArArArCrUmCmCrArGrGrCdT*dT)”, the “Remaining mRNA in % of controls” value was determined as 25%.

“AD-12357: modified dsRNA, SEQ ID NO:1411/1412 (chain 1 GCCUGGAGUUUAUUCGGAA; chain 2 rUrUrCrCrGmAmArUrAmAmArCrUrCrCrAmGmGmC; chain 1: sugars from the 5' end rererererererererer, all phosphodiester, methylation of C and T or U not given here)”: the “Remaining mRNA in % of controls” value was determined as 56%. With “AD-12358: modified dsRNA, SEQ ID NO:1413/1414 (chain 1 GCCUGGAGUUUAUUCGGAA; chain 2 {P}-mUfUmCfCmGfAmAfUmAfAmAfCmUfCmCfAmGfGmC; chain 1: sugars from the 5' end rererererererererer, all phosphodiester, methylation of C and T or U not given here)”, the “Remaining mRNA in % of controls” value is reported as 29%. With “AD-12359: modified dsRNA, SEQ ID NO:1415/1416 (chain 1 GCCUGGAGUUUAUUCGGAA; chain 2 {P}-mUfUmCfCmGfAmAfUmAfAmAfCmUfCmCfAmGfGmC*fC*mU; chain 1: sugars from the 5' end rererererererererer, all phosphodiester, methylation of C and T or U not given here)”, the “Remaining mRNA in % of controls” value was found to be 30%. Take “AD-12360: modified dsRNA, SEQ ID NO:1417/1418 (chain 1 GCCUGGAGUUUAUUCGGAA; chain 2 rUrUrCrCrGrArArUrArArArCrUrCrCrArGrGrC*mC*mU; chain 1: sugars from the 5' end rererererererererer, all phosphodiester, methylation of C and T or U not given here)”: the “Remaining mRNA in % of controls” value is reported as 15%. Regarding “AD-12361: modified dsRNA, SEQ ID NO:1419/1420 (chain 1 GCCUGGAGUUUAUUCGGAA; chain 2 rUrUrCrCrGrArAmUrArArArCrUrCmCrArGrGrCdT*dT; chain 1: sugars from the 5' end rererererererererer, all phosphodiester, methylation of C and T or U not given here)”, the “Remaining mRNA in % of controls” value is reported as 20%. Take “AD-12362: modified dsRNA, SEQ ID NO:1421/1422 (chain 1 GCCUGGAGUUUAUUCGGAA; chain 2 mUrUmCrCrGrArAmUrArArArCrUmCmCrArGrGrCdT*dT; chain 1: sugars from the 5' end rererererererererer, all phosphodiester, methylation of C and T or U not given here)”: the “Remaining mRNA in % of controls” value is on record as 51%. In the case of “AD-12363: modified dsRNA, SEQ ID NO:1423/1424 (chain 1 GCCUGGAGUUUAUUCGGAA; chain 2 rUrUrCrCrGmAmArUrAmAmArCrUrCrCrAmGmGmC*mC*mU; chain 1: sugars from the 5' end rererererererererer, all phosphodiester, methylation of C and T or U not given here)”, the “Remaining mRNA in % of controls” value worked out at 11%. With “AD-12364: modified dsRNA, SEQ ID NO:1425/1426 (chain 1 GCCUGGAGUUUAUUCGGAATT; chain 2 rUrUrCrCrGmAmArUrAmAmArCrUrCrCrAmGmGmCdT*dT; chain 1: sugars from the 5' end rerererererererererdd, linkages o19 s1 (s phosphorothioate, o phosphodiester), methylation of C and T or U not given here)”, the “Remaining mRNA in % of controls” value came to 25%. With “AD-12365: modified dsRNA, SEQ ID NO:1427/1428 (chain 1 GCCUGGAGUUUAUUCGGAATT; chain 2 rUrUrCrCrGrArAmUrArArArCrUrCmCrArGrGrCdT*dT; chain 1: sugars from the 5' end rerererererererererdd, linkages o19 s1 (s phosphorothioate, o phosphodiester), methylation of C and T or U not given here)”, the “Remaining mRNA in % of controls” value amounted to 18%. “AD-12366: modified dsRNA, SEQ ID NO:1429/1430 (chain 1 GCCUGGAGUUUAUUCGGAATT; chain 2 rUrUrCrCrGrArArUrArArArCrUrCrCrArGrGrCdT*dT; chain 1: sugars from the 5' end rerererererererererdd, linkages o19 s1 (s phosphorothioate, o phosphodiester), methylation of C and T or U not given here)”: the “Remaining mRNA in % of controls” value was determined as 23%. Regarding “AD-12367: modified dsRNA, SEQ ID NO:1431/1432 (chain 1 GCCUGGAGUUUAUUCGGAATT; chain 2 rUrUrCrCrGmAmArUrAmAmArCrUrCrCrAmGmGmCdT*dT; chain 1: DNA at T, 2'-MOE at CU, RNA at AG, linkages o19 s1 (s phosphorothioate, o phosphodiester), methylation of C and T or U not given here)”, the “Remaining mRNA in % of controls” value came to 42%. The same measure for “AD-12368: modified dsRNA, SEQ ID NO:1433/1434 (chain 1 GCCUGGAGUUUAUUCGGAATT; chain 2 rUrUrCrCrGrArAmUrArArArCrUrCmCrArGrGrCdT*dT; chain 1: DNA at T, 2'-MOE at CU, RNA at AG, linkages o19 s1 (s phosphorothioate, o phosphodiester), methylation of C and T or U not given here)”: 40%; for “AD-12369: modified dsRNA, SEQ ID NO:1435/1436 (chain 1 GCCUGGAGUUUAUUCGGAATT; chain 2 rUrUrCrCrGrArArUrArArArCrUrCrCrArGrGrCdT*dT; chain 1: DNA at T, 2'-MOE at CU, RNA at AG, linkages o19 s1 (s phosphorothioate, o phosphodiester), methylation of C and T or U not given here)”: 26%; for “AD-12370: modified dsRNA, SEQ ID NO:1437/1438 (chain 1 GCCUGGAGUUUAUUCGGAATT; chain 2 {P}-fUfUfCfCrGrArAfUrArArAfCfUfCfCrArGrGfCdT*dT; chain 1: DNA at T, 2'-MOE at CU, RNA at AG, linkages o19 s1 (s phosphorothioate, o phosphodiester), methylation of C not given here)”: 68%. In the case of “AD-12371: modified dsRNA, SEQ ID NO:1439/1440 (chain 1 GCCUGGAGUUUAUUCGGAATT; chain 2 {P}-fUfUfCfCrGrArAfUrArArAfCfUfCfCrArGrGfC*fC*fU; chain 1: DNA at T, 2'-MOE at CU, RNA at AG, linkages o19 s1 (s phosphorothioate, o phosphodiester), methylation of C and T or U not given here)”, the “Remaining mRNA in % of controls” value is on record as 60%.
